Results from ChEMBL document CHEMBL3885881, “DrugMatrix”.

Species on record: Rattus norvegicus
Assay: DrugMatrix - Regimen: Daily Repeat
Type: toxicity, organism-based, Sprague-Dawley
Design: regimen Daily Repeat, gender Male, age 6-8 weeks
Conditions: in vivo, po, route oral GAVAGE, vehicle 100 % WATER; for ABSOLUTE BASOPHIL / ABSOLUTE EOSINOPHIL / ABSOLUTE LYMPHOCYTE / ABSOLUTE MONOCYTE / ABSOLUTE SEGMENTED NEUTROPHIL / BASOPHIL / EOSINOPHIL / ERYTHROCYTE COUNT / HEMATOCRIT / HEMOGLOBIN / LEUKOCYTE COUNT / LYMPHOCYTE / MEAN CORPUSCULAR HEMOGLOBIN / MEAN CORPUSCULAR HEMOGLOBIN CONCENTRATION / MEAN CORPUSCULAR VOLUME / MONOCYTE / NEUTROPHIL / NUCLEATED RED BLOOD CELLS / PLATELET COUNT: tissue Blood; for ALANINE AMINOTRANSFERASE / ALBUMIN / ALKALINE PHOSPHATASE / ASPARTATE AMINOTRANSFERASE / BLOOD UREA NITROGEN / CARBON DIOXIDE / CHLORIDE / CHOLESTEROL / CREATINE PHOSPHOKINASE / CREATININE / GLUCOSE / LACTATE DEHYDROGENASE / LIPASE / PHOSPHORUS / POTASSIUM / SODIUM / TOTAL BILIRUBIN / TOTAL PROTEIN / URIC ACID: tissue Plasma
[1] = 0 mg/kg, 72 h, dose level Control, time 3 day
[2] = 0 mg/kg, 120 h, dose level Control, time 5 day
[3] = 15 mg/kg, 72 h, dose level Low, time 3 day

## NNC(=O)c1ccncc1 [ISONIAZID]
[1]
  ABSOLUTE BASOPHIL: 0 CELLS/uL
  ABSOLUTE EOSINOPHIL: 46 CELLS/uL
  ABSOLUTE LYMPHOCYTE: 10225.67 CELLS/uL
  ABSOLUTE MONOCYTE: 319.33 CELLS/uL
  ABSOLUTE SEGMENTED NEUTROPHIL: 1242.33 CELLS/uL
  BASOPHIL: 0%
  EOSINOPHIL: 0.33%
  ERYTHROCYTE COUNT: 5.17 x10E6/uL
  HEMATOCRIT: 33.43%
  HEMOGLOBIN: 12.55 G/DL
  LEUKOCYTE COUNT: 11.83 x10E3/uL
  LYMPHOCYTE: 86.5%
  MEAN CORPUSCULAR HEMOGLOBIN: 24.35 pg
  MEAN CORPUSCULAR HEMOGLOBIN CONCENTRATION: 37.57 G/DL
  MEAN CORPUSCULAR VOLUME: 64.8 fL
  MONOCYTE: 2.67%
  NEUTROPHIL: 10.5%
  NUCLEATED RED BLOOD CELLS: 0.17 /100WBC
  PLATELET COUNT: 1026.17 x10E3/uL
  ALANINE AMINOTRANSFERASE: 52.67 u/L
  ALBUMIN: 4.17 G/DL
  ALKALINE PHOSPHATASE: 331 u/L
  ASPARTATE AMINOTRANSFERASE: 92.33 u/L
  BLOOD UREA NITROGEN: 15.33 mg/dL
  CARBON DIOXIDE: 26.17 mmol/L
  CHLORIDE: 103.17 MEQ/L
  CHOLESTEROL: 73.67 mg/dL
  CREATINE PHOSPHOKINASE: 472.83 u/L
  CREATININE: 0.29 mg/dL
  GLUCOSE: 178.5 mg/dL
  LACTATE DEHYDROGENASE: 244.83 u/L
  LIPASE: 10.67 u/L
  PHOSPHORUS: 12.45 mg/dL
  POTASSIUM: 6.35 MEQ/L
  SODIUM: 144.27 MEQ/L
  TOTAL BILIRUBIN: 0.13 mg/dL
  TOTAL PROTEIN: 5.77 G/DL
  URIC ACID: 2.08 mg/dL
[2]
  ABSOLUTE BASOPHIL: 0 CELLS/uL
  ABSOLUTE EOSINOPHIL: 23.5 CELLS/uL
  ABSOLUTE LYMPHOCYTE: 12797.33 CELLS/uL
  ABSOLUTE MONOCYTE: 465.5 CELLS/uL
  ABSOLUTE SEGMENTED NEUTROPHIL: 1313.67 CELLS/uL
  BASOPHIL: 0%
  EOSINOPHIL: 0.17%
  ERYTHROCYTE COUNT: 5.76 x10E6/uL
  HEMATOCRIT: 36.72%
  HEMOGLOBIN: 13.72 G/DL
  LEUKOCYTE COUNT: 14.6 x10E3/uL
  LYMPHOCYTE: 87.5%
  MEAN CORPUSCULAR HEMOGLOBIN: 23.8 pg
  MEAN CORPUSCULAR HEMOGLOBIN CONCENTRATION: 37.35 G/DL
  MEAN CORPUSCULAR VOLUME: 63.72 fL
  MONOCYTE: 3.17%
  NEUTROPHIL: 9.17%
  NUCLEATED RED BLOOD CELLS: 0.33 /100WBC
  PLATELET COUNT: 1270.67 x10E3/uL
  ALANINE AMINOTRANSFERASE: 50.5 u/L
  ALBUMIN: 4.32 G/DL
  ALKALINE PHOSPHATASE: 339.67 u/L
  ASPARTATE AMINOTRANSFERASE: 88 u/L
  BLOOD UREA NITROGEN: 17 mg/dL
  CARBON DIOXIDE: 25 mmol/L
  CHLORIDE: 103.83 MEQ/L
  CHOLESTEROL: 71.33 mg/dL
  CREATINE PHOSPHOKINASE: 281.83 u/L
  CREATININE: 0.26 mg/dL
  GLUCOSE: 161.67 mg/dL
  LACTATE DEHYDROGENASE: 191.17 u/L
  LIPASE: 10.17 u/L
  PHOSPHORUS: 11.72 mg/dL
  POTASSIUM: 6.76 MEQ/L
  SODIUM: 145.17 MEQ/L
  TOTAL BILIRUBIN: 0.2 mg/dL
  TOTAL PROTEIN: 6.15 G/DL
  URIC ACID: 2 mg/dL
[3]
  ABSOLUTE BASOPHIL: 0 CELLS/uL
  ABSOLUTE EOSINOPHIL: 0 CELLS/uL
  ABSOLUTE LYMPHOCYTE: 12954 CELLS/uL
  ABSOLUTE MONOCYTE: 520 CELLS/uL
  ABSOLUTE SEGMENTED NEUTROPHIL: 1492.67 CELLS/uL
  BASOPHIL: 0%
  EOSINOPHIL: 0%
  ERYTHROCYTE COUNT: 5.66 x10E6/uL
  HEMATOCRIT: 34.97%
  HEMOGLOBIN: 13.17 G/DL
  LEUKOCYTE COUNT: 14.97 x10E3/uL
  LYMPHOCYTE: 86.33%
  MEAN CORPUSCULAR HEMOGLOBIN: 23.27 pg
  MEAN CORPUSCULAR HEMOGLOBIN CONCENTRATION: 37.67 G/DL
  MEAN CORPUSCULAR VOLUME: 61.73 fL
  MONOCYTE: 3.67%
  NEUTROPHIL: 10%
  NUCLEATED RED BLOOD CELLS: 0 /100WBC
  PLATELET COUNT: 1157.33 x10E3/uL
  ALANINE AMINOTRANSFERASE: 52.67 u/L
  ALBUMIN: 4.23 G/DL
  ALKALINE PHOSPHATASE: 369.67 u/L
  ASPARTATE AMINOTRANSFERASE: 95.67 u/L
  BLOOD UREA NITROGEN: 14.33 mg/dL
  CARBON DIOXIDE: 26 mmol/L
  CHLORIDE: 102.33 MEQ/L
  CHOLESTEROL: 93.67 mg/dL
  CREATINE PHOSPHOKINASE: 235.67 u/L
  CREATININE: 0.28 mg/dL
  GLUCOSE: 155 mg/dL
  LACTATE DEHYDROGENASE: 140.33 u/L
  LIPASE: 12 u/L
  PHOSPHORUS: 12.77 mg/dL
  POTASSIUM: 6.52 MEQ/L
  SODIUM: 144.23 MEQ/L
  TOTAL BILIRUBIN: 0.2 mg/dL
  TOTAL PROTEIN: 5.83 G/DL
  URIC ACID: 1.4 mg/dL
